IC50 data for 29 molecules are collected here from patent US9156829B2, “Cycloalkyl and heterocycloalkyl compounds as orexin receptor antagonists” (Takeda Pharmaceutical Company Limited, priority 2014, dated 2015).

Where only a bound is given, the exact number is not on record here.

Broadly, the IC50 is the point on the concentration scale where inhibition reaches its midpoint.

One assay concerns the target human orexin receptor 1 (Homo sapiens (Human), UniProt O43613). The experiment in a line: Orexin antagonist activity, intracellular calcium FLIPR assay, RBL-2H3 cells expressing human orexin receptor 1. The note with it: RBL-2H3 cells stably expressing human orexin receptor 1; orexin-A at approx. 80% maximal response; compound added 15 minutes before; read-out: Human Orexin1R IC50. Type of assay: cell-based.

A further assay has as its target human orexin receptor 2 (Homo sapiens (Human), UniProt O43614). As to the kind of experiment: Orexin antagonist activity, intracellular calcium FLIPR assay, RBL-2H3 cells expressing human orexin receptor 2. In kind it is cell-based. The note with it: RBL-2H3 cells stably expressing human orexin receptor 2; orexin-A at approx. 80% maximal response; compound added 15 minutes before; read-out: Human Orexin2R IC50.

Chain of human orexin receptor 1 (O43613 whole entry): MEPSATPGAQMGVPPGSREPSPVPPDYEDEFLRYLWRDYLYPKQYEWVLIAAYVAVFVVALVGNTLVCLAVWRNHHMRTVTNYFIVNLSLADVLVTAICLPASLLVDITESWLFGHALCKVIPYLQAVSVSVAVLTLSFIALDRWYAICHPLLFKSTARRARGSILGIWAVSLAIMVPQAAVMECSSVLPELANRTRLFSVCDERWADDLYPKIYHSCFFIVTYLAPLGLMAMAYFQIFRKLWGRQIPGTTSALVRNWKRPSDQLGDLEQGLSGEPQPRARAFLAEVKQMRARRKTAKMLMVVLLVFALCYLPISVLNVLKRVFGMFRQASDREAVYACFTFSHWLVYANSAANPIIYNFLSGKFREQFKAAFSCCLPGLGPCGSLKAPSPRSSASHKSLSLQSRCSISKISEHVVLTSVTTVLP
Chain of human orexin receptor 2 (O43614 whole entry): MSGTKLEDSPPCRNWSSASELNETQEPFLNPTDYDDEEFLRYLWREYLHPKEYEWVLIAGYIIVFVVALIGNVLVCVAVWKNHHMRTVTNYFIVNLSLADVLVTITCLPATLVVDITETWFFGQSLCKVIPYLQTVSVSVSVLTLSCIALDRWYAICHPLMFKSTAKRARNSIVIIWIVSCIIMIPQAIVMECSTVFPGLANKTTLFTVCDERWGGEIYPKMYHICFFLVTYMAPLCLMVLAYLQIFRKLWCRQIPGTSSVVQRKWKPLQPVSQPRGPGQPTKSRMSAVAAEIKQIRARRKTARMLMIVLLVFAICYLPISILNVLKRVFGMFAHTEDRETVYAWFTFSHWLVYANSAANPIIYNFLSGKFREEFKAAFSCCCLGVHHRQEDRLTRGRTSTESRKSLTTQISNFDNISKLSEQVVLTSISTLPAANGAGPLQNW

`O=C(NC1CCCC1Cc1cc(C(F)(F)F)ccn1)c1ccccc1-n1nccn1` (single isomer, unassigned) [Example 23, 2-(2H-1,2,3-Triazol-2-yl)-N-(2-{[4-(trifluoromethyl)pyridin-2-yl]methyl}cyclopentyl)benzamide]: the IC50 turned out to be 792 nM at human orexin receptor 1 and 3800 nM on human orexin receptor 2.
For the molecule `O=C(NC1CCCC1Cc1ccc(C(F)(F)F)cn1)c1ccccc1-n1nccn1` (single isomer, unassigned) [Example 25, 2-(2H-1,2,3-Triazol-2-yl)-N-(2-{[5-(trifluoromethyl)pyridin-2-yl]methyl}cyclopentyl)benzamide], the half-inhibitory concentration (IC50) at human orexin receptor 1 was 472 nM; on human orexin receptor 2, above 10000 nM.
As to `CC1(Nc2ncc(C(F)(F)F)cn2)CCCC1NC(=O)c1ccccc1-n1nccn1` (single isomer, unassigned) [Example 94, N-(2-Methyl-2-{[5-(trifluoromethyl)pyrimidin-2-yl]amino}cyclopentyl)-2-(2H-1,2,3-triazol-2-yl)benzamide], the IC50 was 28 nM on human orexin receptor 1 and above 10000 nM at human orexin receptor 2.
For the molecule `O=C(NC1CC(F)(F)CC1Nc1ncc(C(F)(F)F)cn1)c1ccccc1-n1nccn1` (single isomer, unassigned) [Example 127, N-(4,4-Difluoro-2-{[5-(trifluoromethyl)pyrimidin-2-yl]amino}cyclopentyl)-2-(2H-1,2,3-triazol-2-yl)benzamide], the 50% inhibitory concentration (IC50) at human orexin receptor 1 is 68 nM; on human orexin receptor 2, above 10000 nM.
In the case of `O=C(NC1CC(F)(F)CC1Nc1ccc(C(F)(F)F)cn1)c1ccccc1-n1nccn1` (single isomer, unassigned) [Example 128, N-(4,4-Difluoro-2-{[5-(trifluoromethyl)pyridin-2-yl]amino}cyclopentyl)-2-(2H-1,2,3-triazol-2-yl)benzamide], the IC50 on human orexin receptor 1 was 33 nM; at human orexin receptor 2, above 10000 nM.
As for `O=C(NC1CC(F)(F)CC1Nc1ccc(C(F)(F)F)cn1)c1ccccc1-n1nccn1` (single isomer, unassigned) [Example 129, N-(4,4-Difluoro-2-{[5-(trifluoromethyl)pyridin-2-yl]amino}cyclopentyl)-2-(2H-1,2,3-triazol-2-yl)benzamide], the half-inhibitory concentration (IC50) is 633 nM on human orexin receptor 1 and 8750 nM on human orexin receptor 2.
In the case of `O=C(NC1CC(F)(F)CC1Nc1cnc(C(F)(F)F)cn1)c1ccccc1-n1nccn1` (single isomer, unassigned) [Example 130, N-(4,4-Difluoro-2-{[5-(trifluoromethyl)pyrazin-2-yl]amino}cyclopentyl)-2-(2H-1,2,3-triazol-2-yl)benzamide], the IC50 at human orexin receptor 1 was found to be 77 nM.
With `COc1cccc(OC)c1C(=O)N[C@H]1CCC[C@@H]1Nc1ccc(C(F)(F)F)cn1` [Example 1, 2,6-Dimethoxy-N-[(1S,2S)-2-{[5-(trifluoromethyl)pyridin-2-yl]amino}cyclopentyl]benzamide], the half-maximal inhibitory concentration (IC50) on human orexin receptor 1 was 240 nM; on human orexin receptor 2, above 10000 nM.
`COc1cccc(OC)c1C(=O)N[C@H]1CCC[C@@H]1Nc1ncc(C(F)(F)F)cn1` [Example 2, 2,6-Dimethoxy-N-[(1S,2S)-2-{[5-(trifluoromethyl)pyrimidin-2-yl]amino}cyclopentyl]benzamide]: the results for the IC50 at human orexin receptor 1 and at human orexin receptor 2 were 870 nM and above 10000 nM, respectively.
For the molecule `Cc1ccc(-n2nccn2)c(C(=O)N[C@H]2CCC[C@@H]2Nc2ncc(C(F)(F)F)cn2)c1` [Example 3, 5-Methyl-2-(2H-1,2,3-triazol-2-yl)-N-[(1S,2S)-2-{[5-(trifluoromethyl)pyrimidin-2-yl]amino}cyclopentyl]benzamide], the IC50 at human orexin receptor 1 was 58 nM; at human orexin receptor 2, above 10000 nM.
On the same counts, the results for `CCc1cnc(N[C@H]2CCC[C@@H]2NC(=O)c2cc(C)ccc2-n2nccn2)nc1` [Example 4, N-[(1S,2S)-2-[(5-Ethylpyrimidin-2-yl)amino]cyclopentyl]-5-methyl-2-(2H-1,2,3-triazol-2-yl)benzamide] are 520 nM and above 10000 nM.
Turning to `Cc1ccc(-n2nccn2)c(C(=O)N[C@H]2CCC[C@@H]2Nc2ccc(C(F)(F)F)cn2)c1` [Example 6, 5-Methyl-2-(2H-1,2,3-triazol-2-yl)-N-[(1S,2S)-2-{[5-(trifluoromethyl)pyridin-2-yl]amino}cyclopentyl]benzamide], the figures for the half-maximal inhibitory concentration (IC50) on human orexin receptor 1 and on human orexin receptor 2 were 51 nM and above 10000 nM, respectively.
As for `Cc1ccc(-n2nccn2)c(C(=O)N[C@H]2CCC[C@@H]2Nc2cnc(C(F)(F)F)cn2)c1` [Example 7, 5-Methyl-2-(2H-1,2,3-triazol-2-yl)-N-[(1S,2S)-2-{[5-(trifluoromethyl)pyrazin-2-yl]amino}cyclopentyl]benzamide], the IC50 on human orexin receptor 1 was 51 nM; on human orexin receptor 2, above 10000 nM.
Regarding `Cc1noc(-c2ccccc2C(=O)N[C@H]2CCC[C@@H]2Nc2ccc(C(F)(F)F)cn2)n1` [Example 8, 2-(3-Methyl-1,2,4-oxadiazol-5-yl)-N-[(1S,2S)-2-{[5-(trifluoromethyl)pyridin-2-yl]amino}cyclopentyl]benzamide], the results for the IC50 on human orexin receptor 1 and at human orexin receptor 2 were 110 nM and above 10000 nM, respectively.
As for `Cc1ccc(-n2nccn2)c(C(=O)N[C@H]2CCC[C@@H]2Nc2cnc(Cl)cn2)c1` [Example 9, N-[(1S,2S)-2-[(5-Chloropyrazin-2-yl)amino]cyclopentyl]-5-methyl-2-(2H-1,2,3-triazol-2-yl)benzamide], the IC50 on human orexin receptor 1 is 340 nM; on human orexin receptor 2 it was above 10000 nM.
For `O=C(N[C@H]1CCC[C@@H]1Nc1ccc(C(F)(F)F)cn1)c1cc(F)ccc1-n1nccn1` [Example 10, 5-Fluoro-2-(2H-1,2,3-triazol-2-yl)-N-[(1S,2S)-2-{[5-(trifluoromethyl)pyridin-2-yl]amino}cyclopentyl]benzamide], the IC50 on human orexin receptor 1 is 59 nM; on human orexin receptor 2, above 10000 nM.
For `O=C(N[C@H]1CCC[C@@H]1Nc1ccc(C(F)(F)F)cn1)c1ccccc1-n1cccn1` [Example 11, 2-(1H-Pyrazol-1-yl)-N-[(1S,2S)-2-{[5-(trifluoromethyl)pyridin-2-yl]amino}cyclopentyl]benzamide], in that order: 170 nM and above 10000 nM.
Turning to `O=C(N[C@H]1CCC[C@@H]1Nc1ccc(C(F)(F)F)cn1)c1ccccc1-n1nccn1` [Example 12, 2-(2H-1,2,3-Triazol-2-yl)-N-[(1S,2S)-2-{[5-(trifluoromethyl)pyridin-2-yl]amino}cyclopentyl]benzamide], the IC50 is 65 nM on human orexin receptor 1 and above 10000 nM on human orexin receptor 2.
With `O=C(N[C@H]1CCC[C@@H]1Nc1ccc(C(F)(F)F)cn1)c1ccccc1-c1ncccn1` [Example 13, 2-(Pyrimidin-2-yl)-N-[(1S,2S)-2-{[5-(trifluoromethyl)pyridin-2-yl]amino}cyclopentyl]benzamide], the concentration for half-maximal inhibition (IC50) at human orexin receptor 1 was 99 nM; on human orexin receptor 2, above 10000 nM.
Take `O=C(N[C@H]1CCC[C@@H]1Nc1ccc(C(F)(F)F)cn1)c1cc(F)ccc1-c1ncccn1` [Example 14, 5-Fluoro-2-(pyrimidin-2-yl)-N-[(1S,2S)-2-{[5-(trifluoromethyl)pyridin-2-yl]amino}cyclopentyl]benzamide]: the figures for the IC50 at human orexin receptor 1 and at human orexin receptor 2 were 89 nM and above 10000 nM, respectively.
Take `Cc1noc(-c2ccccc2C(=O)N[C@H]2CCC[C@@H]2Nc2cnc(C(F)(F)F)cn2)n1` [Example 15, 2-(3-Methyl-1,2,4-oxadiazol-5-yl)-N-[(1S,2S)-2-{[5-(trifluoromethyl)pyrazin-2-yl]amino}cyclopentyl]benzamide]: the figures for the 50% inhibitory concentration (IC50) at human orexin receptor 1 and on human orexin receptor 2 were 49 nM and above 10000 nM, respectively.
`Cc1noc(-c2ccccc2C(=O)N[C@H]2CCC[C@@H]2Nc2ncc(C(F)(F)F)cn2)n1` [Example 16, 2-(3-Methyl-1,2,4-oxadiazol-5-yl)-N-[(1S,2S)-2-{[5-(trifluoromethyl)pyrimidin-2-yl]amino}cyclopentyl]benzamide]: the 50% inhibitory concentration (IC50) on human orexin receptor 1 is 54 nM; on human orexin receptor 2, above 10000 nM.
On to `O=C(N[C@H]1CCC[C@@H]1Nc1cnc(C(F)(F)F)cn1)c1ccccc1-n1nccn1` [Example 17, 2-(2H-1,2,3-Triazol-2-yl)-N-[(1S,2S)-2-{[5-(trifluoromethyl)pyrazin-2-yl]amino}cyclopentyl]benzamide], for which the IC50 was 53 nM on human orexin receptor 1 and above 10000 nM at human orexin receptor 2.
`O=C(N[C@H]1CCC[C@@H]1Nc1ncc(C(F)(F)F)cn1)c1ccccc1-n1nccn1` [Example 18, 2-(2H-1,2,3-Triazol-2-yl)-N-[(1S,2S)-2-{[5-(trifluoromethyl)pyrimidin-2-yl]amino}cyclopentyl]benzamide]: the IC50 on human orexin receptor 1 was 57 nM; at human orexin receptor 2, above 10000 nM.
Take `O=C(N[C@H]1CCC[C@H]1Oc1cnc(C(F)(F)F)cn1)c1ccccc1-n1nccn1` [Example 19, 2-(2H-1,2,3-Triazol-2-yl)-N-[(1S,2R)-2-{[5-(trifluoromethyl)pyrazin-2-yl]oxy}cyclopentyl]benzamide]: the IC50 on human orexin receptor 1 was found to be 757 nM; on human orexin receptor 2 it was 6100 nM.
Turning to `O=C(N[C@H]1CCC[C@@H]1Oc1cc(C(F)(F)F)ccn1)c1ccccc1-n1nccn1` [Example 20, 2-(2H-1,2,3-Triazol-2-yl)-N-[(1S,2S)-2-{[4-(trifluoromethyl)pyridin-2-yl]oxy}cyclopentyl]benzamide], the half-maximal inhibitory concentration (IC50) at human orexin receptor 1 was 875 nM; on human orexin receptor 2, above 10000 nM.
On the same counts, the results for `COc1cccc(OC)c1C(=O)N[C@H]1CCC[C@@H]1Oc1cc(C(F)(F)F)ccn1` [Example 21, 2,6-Dimethoxy-N-[(1S,2S)-2-{[4-(trifluoromethyl)pyridin-2-yl]oxy}cyclopentyl]benzamide] are 576 nM and 6420 nM.
On the same counts, the results for `O=C(NC1CCCC1Cc1cc(C(F)(F)F)ccn1)c1ccccc1-n1nccn1` (stereo not drawn) [Example 22, 2-(2H-1,2,3-Triazol-2-yl)-N-(2-{[4-(trifluoromethyl)pyridin-2-yl]methyl}cyclopentyl)benzamide] are 665 nM and 6160 nM.
For `O=C(NC1CCCC1Cc1ccc(C(F)(F)F)cn1)c1ccccc1-n1nccn1` (stereo not drawn) [Example 24, 2-(2H-1,2,3-Triazol-2-yl)-N-(2-{[5-(trifluoromethyl)pyridin-2-yl]methyl}cyclopentyl)benzamide], the values for the concentration for half-maximal inhibition (IC50) at human orexin receptor 1 and at human orexin receptor 2 were 766 nM and above 10000 nM, respectively.
